Read-outs that look alike come from different tables or passages of the source.
Legend:
S. aureus ATCC 6538p = experiment: microdilution assay MIC, S. aureus ATCC 6538p; type: cell-based, Staphylococcus aureus; conditions: erythromycin sensitive strain, average where multiple assays
Description: (§1) In Table B, in some instances multiple assays were performed for a compound/strain combination, in which case the reported MIC is the average. S. pneumoniae ATCC 6301, ATCC 700671, and ATCC 49619 and S. aureus ATCC 6538p and ATCC 29213 are erythromycin sensitive strains.

S. aureus ATCC 14154 = experiment: microdilution assay MIC, S. aureus ATCC 14154; type: cell-based, Staphylococcus aureus
Description: (§2) In Table B, in some instances multiple assays were performed for a compound/strain combination, in which case the reported MIC is the average.

S. aureus ATCC 29213 = experiment: microdilution assay MIC, S. aureus ATCC 29213; type: cell-based, Staphylococcus aureus; conditions: S. aureus ATCC 29213, erythromycin sensitive strain, average where multiple assays
Description: as §1

S. pneumoniae ATCC 6301 = experiment: microdilution assay MIC, S. pneumoniae ATCC 6301; type: cell-based, Streptococcus pneumoniae; conditions: S. pneumoniae ATCC 6301, erythromycin sensitive strain, average where multiple assays
Description: as §1

[1] = tested on: S. pneumoniae ATCC 700671; experiment: microdilution assay MIC, S. pneumoniae ATCC 700671; type: cell-based, Streptococcus pneumoniae; conditions: S. pneumoniae ATCC 700671, erythromycin sensitive strain, average where multiple assays
Description: as §1

[2] = tested on: S. pneumoniae ATCC 700676; experiment: microdilution assay MIC, S. pneumoniae ATCC 700676; type: cell-based, Streptococcus pneumoniae
Description: as §1

[3] = tested on: S. pneumoniae ATCC 700677; experiment: microdilution assay MIC, S. pneumoniae ATCC 700677; type: cell-based, Streptococcus pneumoniae
Description: as §1

[4] = tested on: S. pneumoniae ATCC 700905; experiment: microdilution assay MIC, S. pneumoniae ATCC 700905; type: cell-based, Streptococcus pneumoniae
Description: as §1

[5] = tested on: S. pneumoniae ATCC 700906; experiment: microdilution assay MIC, S. pneumoniae ATCC 700906; type: cell-based, Streptococcus pneumoniae
Description: as §2

S. pneumoniae ATCC 49619 = experiment: microdilution assay MIC, S. pneumoniae ATCC 49619; type: cell-based, Streptococcus pneumoniae; conditions: S. pneumoniae ATCC 49619, erythromycin sensitive strain, average where multiple assays
Description: as §1

[6] = tested on: S. epidermidis ATCC 12228; experiment: microdilution assay MIC, S. epidermidis ATCC 12228; type: cell-based, Staphylococcus epidermidis
Description: as §1

E. faecalis ATCC 51575 = experiment: microdilution assay MIC, E. faecalis ATCC 51575; type: cell-based, Enterococcus faecalis
Description: as §2

H. influenzae ATCC 9006 = experiment: microdilution assay MIC, H. influenzae ATCC 9006; type: cell-based, Haemophilus influenzae
Description: as §1

H. influenzae ATCC 49766 = experiment: microdilution assay MIC, H. influenzae ATCC 49766; type: cell-based, Haemophilus influenzae
Description: as §1

[7] = S. aureus ATCC 14154, erythromycin A resistant strain, average where multiple assays
[8] = S. pneumoniae ATCC 700676, erythromycin A resistant strain, average where multiple assays
[9] = S. pneumoniae ATCC 700677, erythromycin A resistant strain, average where multiple assays
[10] = S. pneumoniae ATCC 700905, erythromycin A resistant strain, average where multiple assays
[11] = S. pneumoniae ATCC 700906, erythromycin A resistant strain, average where multiple assays

Row | SMILES | MIC (S. aureus ATCC 6538p) [µg/mL] | MIC (S. aureus ATCC 14154; [7]) [µg/mL] | MIC (S. aureus ATCC 29213) [µg/mL] | MIC (S. pneumoniae ATCC 6301) [µg/mL] | MIC [1] [µg/mL] | MIC [2, 8] [µg/mL] | MIC [3, 9] [µg/mL] | MIC [4, 10] [µg/mL] | MIC [5, 11] [µg/mL] | MIC (S. pneumoniae ATCC 49619) [µg/mL] | MIC ([6]; average where multiple assays) [µg/mL] | MIC (E. faecalis ATCC 51575; average where multiple assays) [µg/mL] | MIC (H. influenzae ATCC 9006; average where multiple assays) [µg/mL] | MIC (H. influenzae ATCC 49766; average where multiple assays) [µg/mL] | also measured
1 | CC[C@H]1OC(=O)[C@H](C)C(=O)[C@H](C)[C@@H](O[C@@H]2O[C@H](C)C[C@H](N(C)C)[C@H]2O)[C@](C)(OC)C[C@@H](C)C(=O)[C@H](C)[C@H]2N(CCCCn3cnc(-c4cccnc4)c3)C(=O)O[C@]12C [Tel, telithromycin, reference compound] |  |  |  |  |  |  |  |  |  |  |  |  |  |  | MIC (S. aureus ATCC 6538p; Staphylococcus aureus, ATCC6538P, read-out: MIC): 0.025 µg/mL; MIC (S. aureus ATCC 14154; Staphylococcus aureus, ATCC14154, read-out: MIC): > 12.5 µg/mL; MIC (S. aureus ATCC 29213; Staphylococcus aureus, ATCC29213, read-out: MIC): 0.025 µg/mL; MIC (S. pneumoniae ATCC 6301; Streptococcus pneumoniae, ATCC6301, read-out: MIC): 0.025 µg/mL; MIC ([1]; Streptococcus pneumoniae, ATCC700671, read-out: MIC): 0.025 µg/mL; MIC ([2]; Streptococcus pneumoniae, ATCC700676, read-out: MIC): 0.098 µg/mL; MIC ([3]; Streptococcus pneumoniae, ATCC700677, read-out: MIC): 0.025 µg/mL; MIC ([4]; Streptococcus pneumoniae, ATCC700905, read-out: MIC): 0.025 µg/mL; MIC ([5]; Streptococcus pneumoniae, ATCC700906, read-out: MIC): 0.2 µg/mL; MIC (S. pneumoniae ATCC 49619; Streptococcus pneumoniae, ATCC49619, read-out: MIC): 0.049 µg/mL; MIC ([6]; Staphylococcus epidermidis, ATCC12228, average where multiple assays, read-out: MIC): 0.025 µg/mL; MIC (E. faecalis ATCC 51575; Enterococcus faecalis, ATCC51575, average where multiple assays, read-out: MIC): > 12.5 µg/mL; MIC (H. influenzae ATCC 9006; Haemophilus influenzae, ATCC9006, average where multiple assays, read-out: MIC): 1.56 µg/mL; MIC (H. influenzae ATCC 49766; Haemophilus influenzae, ATCC49766, average where multiple assays, read-out: MIC): 3.12 µg/mL
2 | COC1(C)CC(C)C(=O)C(C)C2NC(=O)OC2(C)C(CCNS(=O)(=O)c2cccc(-c3ccco3)c2)OC(=O)C(C)C(=O)C(C)C1OC1OC(C)CC(N(C)C)C1O (stereo not shown) [Compound 108] | 0.025 | 0.049 | 0.025 | 0.025 | 0.025 | 0.025 | 0.025 | 0.025 | 0.049 | 0.025 | 0.025 | 0.025 | 12.5 | >12.5 | 
3 | COC1(C)CC(C)C(=O)C(C)C2NC(=O)OC2(C)C(CCNS(=O)(=O)c2cccc3ccccc23)OC(=O)C(C)C(=O)C(C)C1OC1OC(C)CC(N(C)C)C1O (stereo not shown) [Compound 106] | 0.01 | 3.12 | 0.025 | 0.01 | 0.01 | 0.01 | 0.01 | 0.01 | 12.5 | 0.01 | 0.025 | 0.025 | 6.25 | 6.25 | 
4 | COC1(C)CC(C)C(=O)C(C)C2NC(=O)OC2(C)C(CCNS(=O)(=O)c2cccc3cccnc23)OC(=O)C(C)C(=O)C(C)C1OC1OC(C)CC(N(C)C)C1O (stereo not shown) [Compound 105] | 0.049 | 0.39 | 0.049 | 0.01 | 0.01 | 0.01 | 0.01 | 0.01 | 0.39 | 0.01 | 0.025 | 0.025 | 3.12 | 6.25 | 
5 | COC1(C)CC(C)C(=O)C(C)C2NC(=O)OC2(C)C(CCN(Cc2cccc(-c3ccco3)c2)Cc2cccc(-c3ccco3)c2)OC(=O)C(C)C(=O)C(C)C1OC1OC(C)CC(N(C)C)C1O (stereo not shown) [Compound 104] | >12.5 | 6.25 | 6.25 | 3.12 | 3.12 | 6.25 | 6.25 | >12.5 | >12.5 | >12.5 | 6.25 | 12.5 | >12.5 | >12.5 | 
